Changes are numbered by the printed parent chain.
Key:
Assay type in all cases: biochemical
WT IDH2 [1] = molecular target: T1, WT IDH2 (Homo sapiens, UniProt P48735); experiment: Absorbance assay, WT activity in the presence of equimolar DL-isocitrate (inhibition); settings: […] isocitrate and […] test compound, 75 μM NADP+, 2.0 nM WT IDH2
T1 construct: made in house; host or cells: Sf21 insect cells (cell pellets prepared at Evotec)
T1 sequence (P48735 40-452): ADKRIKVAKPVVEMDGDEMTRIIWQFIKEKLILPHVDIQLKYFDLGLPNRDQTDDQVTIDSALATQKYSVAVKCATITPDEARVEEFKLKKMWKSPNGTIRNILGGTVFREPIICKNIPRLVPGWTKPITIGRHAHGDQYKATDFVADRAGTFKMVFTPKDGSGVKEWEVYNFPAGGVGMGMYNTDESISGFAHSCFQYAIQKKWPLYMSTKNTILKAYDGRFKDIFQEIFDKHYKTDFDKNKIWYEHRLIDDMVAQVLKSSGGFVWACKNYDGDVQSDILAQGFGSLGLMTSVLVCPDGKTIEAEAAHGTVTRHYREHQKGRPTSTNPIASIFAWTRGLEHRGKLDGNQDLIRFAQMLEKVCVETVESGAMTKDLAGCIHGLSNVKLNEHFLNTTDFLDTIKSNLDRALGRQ
Summary of the method: (§1)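 Quadruplicate technical repeats are run. Reaction start is by reagent dispenser.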

WT IDH1 [2] = molecular target: T2, WT IDH1 (Homo sapiens, UniProt O75874); experiment: as above; settings: […] isocitrate and […] test compound, 75 μM NADP+, 2.0 nM WT IDH1
T2 construct: made in house; host or cells: Escherichia coli BL21(DE3) pLyS
T2 sequence (O75874 whole entry): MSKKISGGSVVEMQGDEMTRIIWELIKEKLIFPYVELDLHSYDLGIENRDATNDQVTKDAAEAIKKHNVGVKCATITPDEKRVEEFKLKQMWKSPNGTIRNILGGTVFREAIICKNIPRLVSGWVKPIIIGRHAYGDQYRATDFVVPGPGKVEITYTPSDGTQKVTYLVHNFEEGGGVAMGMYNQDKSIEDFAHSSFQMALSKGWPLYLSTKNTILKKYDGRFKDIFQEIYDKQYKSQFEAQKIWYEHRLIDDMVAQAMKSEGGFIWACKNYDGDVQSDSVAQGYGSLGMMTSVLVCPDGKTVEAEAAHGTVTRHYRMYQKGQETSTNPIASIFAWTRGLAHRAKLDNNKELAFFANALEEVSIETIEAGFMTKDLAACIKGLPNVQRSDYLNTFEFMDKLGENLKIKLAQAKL
Summary of the method: as §1

R172K IDH2 [3] = molecular target: T3, R172K IDH2 (Homo sapiens, UniProt P48735, R172K); experiment: Absorbance assay, variant activity in the presence of equimolar 2OG (inhibition screen); settings: for activity [%] (%-substrate conversion after 20 min incubation): 1.0 mM 2OG and 1.0 mM test compound, 0.03 μM R172K IDH2, 50 μM NADPH
T3 construct: made in house; host or cells: Sf21 insect cells (cell pellets prepared at Evotec)
T3 sequence (P48735 40-452 R172K): T1 sequence (P48735 40-452) with R133K
Summary of the method: as §1

R140Q IDH2 [4] = molecular target: T4, R140Q IDH2 (Homo sapiens, UniProt P48735, R140Q); experiment: as above; settings: 6.0 mM 2OG and 6.0 mM test compound, 0.03 μM R140Q IDH2, 50 μM NADPH
T4 construct: made in house; host or cells: Sf21 insect cells (cell pellets prepared at Evotec)
T4 sequence (P48735 40-452 R140Q): T1 sequence (P48735 40-452) with R101Q
Summary of the method: as §1

R140Q IDH2 [5] = molecular target: T4, R140Q IDH2; experiment: Steady-state kinetics, absorbance assay; settings: 0.03 μM enzyme, 50 μM NADPH, 20 mM MgCl2, pH 8.0
Procedure: (§2) Compounds were dispensed using a CyBio SDW-CW CyBi-Well Simultaneous Pipettor and assay started using a ThermoFisher Multidrop Combi reagent dispenser.
(§3) Reactions were performed as technical duplicates, and all assays were carried out in two independent duplicates.

WT IDH2 [6] = molecular target: T1, WT IDH2; experiment: Absorbance assay, substrate activity in the absence of DL-isocitrate; settings: no DL-isocitrate; […] test compound, 75 μM NADP+, 2.0 nM WT IDH2; compared to DL-isocitrate
Summary of the method: as §1

WT IDH1 [7] = molecular target: T2, WT IDH1; experiment: as above; settings: no DL-isocitrate; […] test compound, 75 μM NADP+, 2.0 nM WT IDH1; compared to DL-isocitrate
Summary of the method: as §1

R132H IDH1 [8] = molecular target: T5, R132H IDH1 (Homo sapiens, UniProt O75874, R132H); experiment: Absorbance assay, variant activity in the presence of equimolar 2OG (inhibition screen); parameters: made in house; host or cells: Escherichia coli BL21(DE3) pLyS; settings: […] 2OG and […] test compound, 0.03 μM R132H IDH1, 50 μM NADPH
Summary of the method: as §1
Target sequence in this assay (O75874 whole entry R132H): as the sequence (O75874 whole entry) above, with R132H counted along it

R132H IDH1 [9] = molecular target: T5, R132H IDH1; experiment: Electrochemical assay (FNR+R132H IDH1)@ITO/PGE electrode; parameters: made in house; host or cells: Escherichia coli BL21(DE3) pLyS (IDH1 R132H); settings: simulated from experimental Km and vmax, if 500 μM substrate consumed at the electrode-solution interface per scan
Procedure: Assays were carried out in an anaerobic glovebox (Glove Box Technology) under a nitrogen atmosphere. A potentiostat (Autolab PGSTAT 10) running on Nova software was used for all experiments. As previously described, the electrochemical apparatus included an Autolab electrode rotator, a two-chamber custom-made glass electrochemical cell, and custom-made rotating pyrolytic graphite edge (PGE) electrodes ([55]). Platinum wire was used as the counter electrode; it was placed in the working electrode chamber. Electrode potentials (E) were measured against a saturated calomel electrode and converted to the standard hydrogen electrode using a temperature-dependent equation (at 25 °C: ESHE = ESCE + 0.2412 V) ([55]). Nanoporous indium tin oxide (ITO) electrodes were made by electrophoretically depositing ITO nanoparticles (<50 nm, Sigma-Aldrich) onto PGE electrodes (ITO/PGE) as previously described ([55]). […] In all experiments, 0.85 nmol (homodimer basis) of IDH1 R132H was used; the amount of coloaded FNR was adjusted to achieve the desired enzyme loading ratio. Electrodes loaded with enzyme were thoroughly rinsed using buffer solution before each experiment to remove excess enzyme. […]
and controlled electrochemically under steady-state conditions (1).
Conditions: 25 °C, mixed buffer (20 […]
mM each MES, TAPS, CHES, pH 8.0), 10 mM MgCl2, 10 µM NADPH, 4 mL cell volume, (FNR+R132H IDH1)@ITO/PGE electrode, electrode area 0.06 cm2, rotated at 1000 rpm, E = –0.513 V vs SHE, enzyme loading ratios (molar): FNR/R132H IDH1; 2.5 (dimer basis).
(1 picture or pasted object on this page, not shown here)
Target sequence in this assay (O75874 2-414 R132H): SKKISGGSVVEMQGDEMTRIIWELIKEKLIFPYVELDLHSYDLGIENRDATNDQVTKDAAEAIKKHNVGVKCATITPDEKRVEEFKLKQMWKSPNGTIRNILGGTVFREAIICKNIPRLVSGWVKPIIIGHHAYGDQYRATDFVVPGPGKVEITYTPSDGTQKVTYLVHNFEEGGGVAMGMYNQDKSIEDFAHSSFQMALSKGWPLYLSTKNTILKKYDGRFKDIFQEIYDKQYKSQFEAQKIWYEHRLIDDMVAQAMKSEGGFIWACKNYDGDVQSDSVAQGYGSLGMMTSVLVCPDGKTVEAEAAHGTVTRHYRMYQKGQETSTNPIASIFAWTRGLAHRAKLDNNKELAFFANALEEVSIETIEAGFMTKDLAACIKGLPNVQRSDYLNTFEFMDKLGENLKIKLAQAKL

R132H IDH1 [10] = molecular target: T5, R132H IDH1; experiment: Steady-state kinetics, absorbance assay; parameters: made in house; host or cells: Escherichia coli BL21(DE3) pLyS; settings: predicted, Fig. 3H simulation
Procedure: as §2, §3
Target sequence in this assay (O75874 whole entry R132H): as the sequence (O75874 whole entry) above, with R132H counted along it

R172K IDH2 [11] = molecular target: T3, R172K IDH2; experiment: Absorbance assay (NADPH consumption), substrate turnover in the absence of 2OG; settings: no 2OG; 1.0 mM test compound, 0.03 μM R172K IDH2, 50 μM NADPH; 2OG = 100
Summary of the method: as §1

R140Q IDH2 [12] = molecular target: T4, R140Q IDH2; experiment: as above; settings: no 2OG; 6.0 mM test compound, 0.03 μM R140Q IDH2, 50 μM NADPH; 2OG = 100
Summary of the method: as §1

R132H IDH1 [13] = molecular target: T5, R132H IDH1; experiment: as above; parameters: made in house; host or cells: Escherichia coli BL21(DE3) pLyS; settings: no 2OG; […] test compound, 0.03 μM R132H IDH1, 50 μM NADPH; 2OG = 100
Summary of the method: as §1
Target sequence in this assay (O75874 whole entry R132H): as the sequence (O75874 whole entry) above, with R132H counted along it

R172K IDH2 [14] = molecular target: T3, R172K IDH2; experiment: Steady-state kinetics, absorbance assay; settings: 0.03 μM enzyme, 50 μM NADPH, 20 mM MgCl2, pH 8.0
Procedure: as §2, §3

| SMILES | activity [%] (%-substrate conversion after 20 min incubation) (WT IDH2 [1]) | activity [%] (%-substrate conversion after 20 min incubation) (WT IDH1 [2]) | activity [%] (%-substrate conversion after 20 min incubation) (R172K IDH2 [3]) | activity [%] (%-substrate conversion after 20 min incubation) (R140Q IDH2 [4]) | Kmapp (R140Q IDH2 [5]) [mM] | activity [%] (%-substrate conversion after 20 min incubation) (WT IDH2 [6]) | activity [%] (%-substrate conversion after 20 min incubation) (WT IDH1 [7]) | activity [%] (%-substrate conversion after 20 min incubation) (R132H IDH1 [8]) | predicted change in catalytic rate (R132H IDH1 [9]) [%] | Vmax (predicted for single enantiomer) (R132H IDH1 [10]) [µM/min] | activity [%] (%-substrate conversion after 20 min incubation) (R172K IDH2 [11]) | activity [%] (%-substrate conversion after 20 min incubation) (R140Q IDH2 [12]) | activity [%] (%-substrate conversion after 20 min incubation) (R132H IDH1 [13]) | inhibition (R172K IDH2 [3]; equimolar 2OG (1.0 mM)) | kcatapp (R172K IDH2 [14]) [s⁻¹] |
| --- | --- | --- | --- | --- | --- | --- | --- | --- | --- | --- | --- | --- | --- | --- | --- |
| CCC(CC(=O)O)C(=O)C(=O)O (racemic) [compound 2] | 96±3 | 98±10 | 131 ± 16 | 865 ± 78 | 3.8 to 7.5 | < 10 | < 10 | 317 ± 12 | – | – | – | – | – | – | – |
| CC(CC(=O)C(=O)O)C(=O)O (single isomer, unassigned) [enantiopure 12] | – | – | – | – | – | – | – | – | −46 | 9.6 | – | – | – | – | – |
| CC(O)C(=O)O (racemic) [DL-lactic acid] | 95 ± 5 | 105 ± 6 | 100 ± 8 | 115 ± 9 | – | < 10 | < 10 | 104 ± 8 | – | – | < 10 | < 10 | < 10 | – | – |
| O=C(O)CC(Cc1ccccc1)C(=O)C(=O)O (centres unmarked) [compound 7, 3-benzyl-2OG] | 99±1 | 94±1 | 114 ± 4 | 91 ± 8 | 3.8 to 7.5 | < 10 | < 10 | 229 ± 21 | – | – | – | – | – | – | – |
| O=C(O)C(=O)CS [mercaptopyruvic acid] | 85 ± 1 | 88 ± 1 | 54 ± 1 | 91 ± 5 | – | < 10 | < 10 | 51 ± 5 | – | – | < 10 | < 10 | < 10 | ~ 50% | – |
| CCCC(CC(=O)O)C(=O)C(=O)O (racemic) [compound 3] | 96±5 | 105±5 | 105 ± 6 | 632 ± 68 | – | < 10 | < 10 | 294 ± 31 | – | – | – | – | – | – | ~2.7 |

Source: PMC9939733 (The Journal of Biological Chemistry, 2023)
